Test results published in patent publication US20230146455A1, “TREATMENT OF INFLAMMATORY DISEASES WITH PEPTIDES AND PHARMACEUTICAL COMPOSITIONS” (Yuyu Pharma, Inc., priority 2020, published 2023).
Values joined by “and” are separate entries in the source; they are usually repeats but may differ in a detail not shown here. Identical values can stand only once. Where a SMILES comes first, the peptide text is derived from it. [ ]: non-standard residue; d: D form. Hyp = O=C(O)[C@@H]1C[C@@H](O)CN1

Tested on: CCL4/MIP-1 beta
Assay: Example 9 Luminex, LPS hPBMCs: CCL4/MIP-1 beta
Type: cell-based, human
Conditions: for MFI (Bead name: CCL4/MIP-1 beta): dilution 10
Procedure: Treatment Human PBMCs were pretreated with YY-101, YDE-011 and YDE-043 or reference compound; Xiidra® at various concentration (ranging from 1 nM to 100 uM) for 2 h before stimulation. An equal volume of 0.5% DMSO was used as a vehicle control. Then, the cells were treated with LPS at 5 ug/ml. The supernatants from treated cells were harvested at 24 h and placed in a 96 well for Luminex cytokine & chemokine profiling using a Luminex 200 multiplex assay (Luminex; R&D system, USA).
The main study arm with triplicate wells per group in a 24-well plate: • 1. Blank • 2. PBMC: 0.5% DMSO • 3. PBMC+LPS (5 ug/ml) • 4. PBMC+YY-101 100 uM • 5. PBMC+YY-101 10 uM • 6. PBMC+YY-101 1 uM • 7. PBMC+YY-101 0.1 uM • 8. PBMC+YY-101 0.01 uM • 9. PBMC+LPS (5 ug/ml)+Xiidra®100 uM • 10. PBMC+LPS (5 ug/ml)+Xiidra® 10 uM • 11. PBMC+LPS (5 ug/ml)+Xiidra® 1 uM • 12. PBMC+LPS (5 ug/ml)+Xiidra®0.1 uM • 13. PBMC+LPS (5 ug/ml)+Xiidra®0.01 uM • 14. PBMC+LPS (5 ug/ml)+Xiidra®0.001 uM • 15. PBMC+LPS (5 ug/ml)+YY-101 100 uM • 16. PBMC+LPS (5 ug/ml)+YY-101 10 uM • 17. PBMC+LPS (5 ug/ml)+YY-101 1 uM • 18. PBMC+LPS (5 ug/ml)+YY-101 0.1 uM • 19. PBMC+LPS (5 ug/ml)+YY-101 0.01 uM • 20. PBMC+LPS (5 ug/ml)+YY-101 0.001 uM • 21. PBMC+LPS (5 ug/ml)+YDE-011 100 uM • 22. PBMC+LPS (5 ug/ml)+YDE-011 10 uM • 23. PBMC+LPS (5 ug/ml)+YDE-011 1 uM • 24. PBMC+LPS (5 ug/ml)+YDE-011 0.1 uM • 25. PBMC+LPS (5 ug/ml)+YDE-011 0.01 uM • 26. PBMC+LPS (5 ug/ml)+YDE-011 0.001 uM • 27. PBMC+LPS (5 ug/ml)+YDE-043 100 uM • 28. PBMC+LPS (5 ug/ml)+YDE-043 10 uM • 29. PBMC+LPS (5 ug/ml)+YDE-043 1 uM • 30. PBMC+LPS (5 ug/ml)+YDE-043 0.1 uM • 31. PBMC+LPS (5 ug/ml)+YDE-043 0.01 uM • 32. PBMC+LPS (5 ug/ml)+YDE-043 0.001 uM
Multiplex assay was used to measure 30 cytokines and chemokines. The 1:2, 1:10 and 1:200 diluted cell supernatant and serial dilution of the standard were dispensed into a 96 well plate at 50 ul/well. Then, the pre-mixed cocktail of antibody-coated magnetic beads was dispensed at 50 ul/well and incubated at room temperature for 2 h in a horizontal orbital microplate shaker at 800±500 rpm. The beads were washed using a magnetic device to prevent loss. The biotin-antibody was dispensed in 50 ul of each well and incubated at room temperature for 1 h in a shaker at 800±500 rpm. After washing, streptavidin-PE was added at 50 ul/well and incubated at room temperature for 30 min in a shaker under the same conditions. Finally, after washing, wash buffer (100 ul/well) was added to the plate and incubated in a shaker for 2 min. The Luminex™ 200 setting were set according to the manufacturer's protocol. The data was calculated with a standard five-parameter logistic nonlinear regression analysis of the data (xPonent software 4.2, USA). The levels of cytokine/chemokine are normalized to the live cell counts (1×10^5 cells/mL) and presented as concentrations per mL (pg/mL or ng/mL).

[1] = PBMC + LPS(5 ug/ml), test article 0.001 uM, Mean
[2] = PBMC + LPS(5 ug/ml), test article 0.001 uM, single replicates
[3] = PBMC + LPS(5 ug/ml), test article 0.01 uM, Mean
[4] = PBMC + LPS(5 ug/ml), test article 0.01 uM, single replicates
[5] = PBMC + LPS(5 ug/ml), test article 0.1 uM, Mean
[6] = PBMC + LPS(5 ug/ml), test article 0.1 uM, single replicates
[7] = PBMC + LPS(5 ug/ml), test article 1 uM, Mean
[8] = PBMC + LPS(5 ug/ml), test article 1 uM, single replicates
[9] = PBMC + LPS(5 ug/ml), test article 10 uM, Mean
[10] = PBMC + LPS(5 ug/ml), test article 10 uM, single replicates
[11] = PBMC + LPS(5 ug/ml), test article 100 uM, Mean
[12] = PBMC + LPS(5 ug/ml), test article 100 uM, single replicates
[13] = PBMC without LPS, test article 0.01 uM, Mean
[14] = PBMC without LPS, test article 0.01 uM, single replicates
[15] = PBMC without LPS, test article 0.1 uM, Mean
[16] = PBMC without LPS, test article 0.1 uM, single replicates
[17] = PBMC without LPS, test article 1 uM, Mean
[18] = PBMC without LPS, test article 1 uM, single replicates
[19] = PBMC without LPS, test article 10 uM, Mean

SMILES: CC(C)C[C@H](NC(=O)CNC(=O)[C@H](CC(=O)O)NC(=O)[C@H](CCC(N)=O)NC(=O)CNC(=O)[C@@H]1C[C@@H](O)CN1)C(=O)N[C@@H](C)C(=O)NCC(=O)N1CCC[C@H]1C(=O)N[C@@H](CCCCN)C(=O)O [YY-101] (H-[Hyp]GQDGLAGPK-OH; N-terminus and C-terminus assumed)
- LPS-induced CCL4 (in words) (LPS 5 ug/mL 24 hrs, 100 uM to 1 nM): significantly reduced
- Concentration (CCL4/MIP-1 beta) [1]: 13975.6 pg/mL
- conc/live cell (CCL4/MIP-1 beta) [1]: 2183.3 pg/10^5
- MFI (Bead name: CCL4/MIP-1 beta) [1]: 515.8
- MFI (Bead name: CCL4/MIP-1 beta) [2]: 551.5 and 527.0 and 469.0
- Concentration (CCL4/MIP-1 beta) [2]: 14562.9 pg/mL and 14163.0 pg/mL and 13200.9 pg/mL
- conc/live cell (CCL4/MIP-1 beta) [2]: 2554.9 pg/10^5 and 1994.8 pg/10^5 and 2000.1 pg/10^5
- Concentration (CCL4/MIP-1 beta) [3]: 15170.0 pg/mL
- conc/live cell (CCL4/MIP-1 beta) [3]: 2461.1 pg/10^5
- MFI (Bead name: CCL4/MIP-1 beta) [3]: 589.2
- MFI (Bead name: CCL4/MIP-1 beta) [4]: 611.0 and 596.5 and 560.0
- Concentration (CCL4/MIP-1 beta) [4]: 15520.6 pg/mL and 15288.8 pg/mL and 14700.8 pg/mL
- conc/live cell (CCL4/MIP-1 beta) [4]: 2425.1 pg/10^5 and 2548.1 pg/10^5 and 2410.0 pg/10^5
- Concentration (CCL4/MIP-1 beta) [5]: 15088.0 pg/mL
- conc/live cell (CCL4/MIP-1 beta) [5]: 2590.9 pg/10^5
- MFI (Bead name: CCL4/MIP-1 beta) [5]: 584.0
- MFI (Bead name: CCL4/MIP-1 beta) [6]: 576.0 and 592.0 and 584.0
- Concentration (CCL4/MIP-1 beta) [6]: 14959.4 pg/mL and 15216.6 pg/mL and 15088.1 pg/mL
- conc/live cell (CCL4/MIP-1 beta) [6]: 2412.8 pg/10^5 and 2926.3 pg/10^5 and 2433.6 pg/10^5
- Concentration (CCL4/MIP-1 beta) [7]: 14794.1 pg/mL
- conc/live cell (CCL4/MIP-1 beta) [7]: 2273.3 pg/10^5
- MFI (Bead name: CCL4/MIP-1 beta) [7]: 565.8
- MFI (Bead name: CCL4/MIP-1 beta) [8]: 594.0 and 556.5 and 547.0
- Concentration (CCL4/MIP-1 beta) [8]: 15248.7 pg/mL and 14644.0 pg/mL and 14489.7 pg/mL
- conc/live cell (CCL4/MIP-1 beta) [8]: 2420.4 pg/10^5 and 2062.5 pg/10^5 and 2337.0 pg/10^5
- Concentration (CCL4/MIP-1 beta) [9]: 15474.9 pg/mL
- conc/live cell (CCL4/MIP-1 beta) [9]: 2351.1 pg/10^5
- MFI (Bead name: CCL4/MIP-1 beta) [9]: 608.3
- MFI (Bead name: CCL4/MIP-1 beta) [10]: 614.0 and 651.0 and 560.0
- Concentration (CCL4/MIP-1 beta) [10]: 15568.4 pg/mL and 16155.4 pg/mL and 14700.8 pg/mL
- conc/live cell (CCL4/MIP-1 beta) [10]: 2594.7 pg/10^5 and 2524.3 pg/10^5 and 1934.3 pg/10^5
- Concentration (CCL4/MIP-1 beta) [11]: 13712.9 pg/mL
- conc/live cell (CCL4/MIP-1 beta) [11]: 2374.0 pg/10^5
- MFI (Bead name: CCL4/MIP-1 beta) [11]: 499.8
- MFI (Bead name: CCL4/MIP-1 beta) [12]: 537.0 and 474.5 and 488.0
- Concentration (CCL4/MIP-1 beta) [12]: 14326.7 pg/mL and 13293.2 pg/mL and 13518.7 pg/mL
- conc/live cell (CCL4/MIP-1 beta) [12]: 2274.1 pg/10^5 and 2144.1 pg/10^5 and 2703.7 pg/10^5
- conc/live cell (CCL4/MIP-1 beta) [13]: 0.0 pg/10^5
- MFI (Bead name: CCL4/MIP-1 beta) [13]: 0.0
- MFI (Bead name: CCL4/MIP-1 beta) [14]: 0.0
- conc/live cell (CCL4/MIP-1 beta) [14]: 0.0 pg/10^5
- conc/live cell (CCL4/MIP-1 beta) [15]: 0.0 pg/10^5
- MFI (Bead name: CCL4/MIP-1 beta) [15]: 0.0
- MFI (Bead name: CCL4/MIP-1 beta) [16]: 0.0
- conc/live cell (CCL4/MIP-1 beta) [16]: 0.0 pg/10^5
- conc/live cell (CCL4/MIP-1 beta) [17]: 0.0 pg/10^5
- MFI (Bead name: CCL4/MIP-1 beta) [17]: −0.8
- MFI (Bead name: CCL4/MIP-1 beta) [18]: −1.0 and −0.5
- conc/live cell (CCL4/MIP-1 beta) [18]: 0.0 pg/10^5
- Concentration (CCL4/MIP-1 beta) [19]: 1948.5 pg/mL
- conc/live cell (CCL4/MIP-1 beta) [19]: 152.2 pg/10^5
- MFI (Bead name: CCL4/MIP-1 beta) [19]: 5.5
